# Test results reported in publication PMC5111122, “Peptides at the Interface: Self-Assembly of Amphiphilic Designer Peptides and Their Membrane Interaction Propensity” (Biomacromolecules, 2016).
# Key:
# [1] = not given; remark: listed apart in the source
# [2] = Determination of the critical aggregation concentration (CAC), DPH fluorescence assay; assay type: physicochemical; details: excitation 359 nm, emission 428 nm, peptide in double-distilled water cleared with NaOH, aged 1 week, intersection of two fitted straight lines
# Method: (§1) Lyophilized peptides were dissolved in double-distilled water. NaOH (1 or 0.1 M) was added stepwise until the samples appeared as clear, colorless solutions. Stock solutions (50 mM) were then diluted with double-distilled water to obtain the desired concentrations. All samples were aged for 1 week under an argon atmosphere prior to fluorescence, SAXS, TEM, and attenuated total reflection Fourier transform infrared (ATR-FTIR) spectroscopy measurements.
# A 4 μL portion of DPH in methanol (10 μM) was added to 50 μL of peptide solution of varying concentrations. All fluorescence spectra were recorded under identical conditions on a CLARIOstar microplate reader (BMG LABTECH, Ortenberg, Germany) with an excitation wavelength of 359 nm. Fluorescence emission was recorded at 428 nm. Samples were background corrected and normalized to the highest intensity readout. DPH is almost nonfluorescent in aqueous solutions and in the presence of randomly oriented peptide monomers. As soon as oriented structures are formed, a sharp increase in fluorescence intensity is observed. The CAC of the peptide is defined as the intersection point of two straight lines, fitting the low intensity region and the region with linearly increasing intensity.[18]
# [3] = TEM of peptide assemblies (negative staining, cryo); assay type: physicochemical
# Method: as §1
# Solutions of A6YD and V4WD2 (11 mM) were incubated for 1 week prior to TEM measurements. Samples were adsorbed onto a glow-discharged carbon-coated copper grid and allowed to settle for 1 min. Excess fluid was carefully removed with filter paper and immediately replaced by 5 μL of a 2% (w/v) uranyl acetate staining solution, which was centrifuged for 6 min at 10000 rpm prior to usage in order to precipitate potentially present aggregates. The uranyl acetate solution was allowed to settle for 30 s, blotted, and replaced by another 5 μL of fresh solution. After 30 s of incubation, the staining solution was removed and the sample was air-dried. Visualization of the samples was achieved by using a Fei Tecnai G^2 20 transmission electron microscope (Eindhoven, The Netherlands) operating at an acceleration voltage of 120 kV. Digital images were made using a Gatan US1000 CCD camera at 2K × 2K resolution.
# [4] = Differential scanning calorimetry (DSC) on DPPC MLVs; details: as evidenced by DSC, EPR, and SAXS
# Method: DPPC was dissolved in chloroform/methanol (2:1 v/v), mixed, and organic solvents were evaporated under a gentle stream of nitrogen, followed by drying under a vacuum overnight in order to completely remove residual organic solvents. The dry lipid-film was hydrated either by adding double-distilled water (reference) or by adding aqueous solutions of the peptides to finally obtain four different molar ratios: 50:1, 25:1, 10:1, and 5:1 DPPC/peptide (mol/mol). These ratios correspond to peptide concentrations of 1.1, 2.2, 5.5, and 11 mM, respectively. The DPPC concentration was 55 mM. The samples were incubated above the lipid’s phase transition temperature at 50 °C for 2 h, intermitted by vigorous vortexing every 15 min.
# DPPC MLVs in the presence and absence of peptides were prepared as described above, incubated for 24 h at room temperature (gently rotating), and diluted with double-distilled water to 2.75 mM DPPC prior to measurements to fit the optimal concentration regime for DSC. Measurements were performed on a Microcal VP-DSC differential scanning calorimeter (Northampton, MA, USA). Scans were recorded at a constant scan rate of 0.5 °C/min from 10 to 80 °C. […] The sharpness of the transition was described by the full width at half-maximum (ΔT1/2), and calorimetric enthalpies (ΔH) were calculated by integrating the peak areas.
Substance,peptide fiber diameter in presence of LDL,hard sphere radius (Rs) [1],∼CAC (critical aggregation concentration) [2],"diameter of supramolecular cylinders (TEM, both techniques) ([3]; above the CAC, Fig. S11)","fiber diameter, cryo-TEM ([3]; cryogenic conditions)","nanofiber diameter, negative-staining TEM ([3]; negative staining with 2% uranyl acetate, peptide aged 1 week)",interaction with DPPC MLVs [4]
Ac-AAAAAAYD-OH,10 nm,2.6 nm,–,–,–,–,–
Ac-AAAAAAYK-NH2 [A6YK],–,–,~1 mM,4- 12 nm,8–12 nm,4–10 nm,no interaction
